Source: patent US11510886B2, “Metformin amino acid compounds and methods of using the same” (Laboratorios Silancs S.A. DE C.V., priority 2016, dated 2022)
Entries after “also recorded” stand apart in the source; their conditions may differ. Structures can show the parent of a compound that is named as a salt.

Assays:
GPBP = molecular target: T1, GPBP (Homo sapiens, UniProt Q9Y5P4); test: In vitro (auto)phosphorylation of recombinant FLAG-GPBP; assay type: biochemical; parameters: made in house; host or cells: Pichia pastoris; settings: for GPBP in vitro kinase activity (autophosphorylation): β-glycerophosphate phosphorylation solution pH 7.0, [γ-32P]ATP, autoradiography (FIG. 64)
T1 sequence (Q9Y5P4 1-624): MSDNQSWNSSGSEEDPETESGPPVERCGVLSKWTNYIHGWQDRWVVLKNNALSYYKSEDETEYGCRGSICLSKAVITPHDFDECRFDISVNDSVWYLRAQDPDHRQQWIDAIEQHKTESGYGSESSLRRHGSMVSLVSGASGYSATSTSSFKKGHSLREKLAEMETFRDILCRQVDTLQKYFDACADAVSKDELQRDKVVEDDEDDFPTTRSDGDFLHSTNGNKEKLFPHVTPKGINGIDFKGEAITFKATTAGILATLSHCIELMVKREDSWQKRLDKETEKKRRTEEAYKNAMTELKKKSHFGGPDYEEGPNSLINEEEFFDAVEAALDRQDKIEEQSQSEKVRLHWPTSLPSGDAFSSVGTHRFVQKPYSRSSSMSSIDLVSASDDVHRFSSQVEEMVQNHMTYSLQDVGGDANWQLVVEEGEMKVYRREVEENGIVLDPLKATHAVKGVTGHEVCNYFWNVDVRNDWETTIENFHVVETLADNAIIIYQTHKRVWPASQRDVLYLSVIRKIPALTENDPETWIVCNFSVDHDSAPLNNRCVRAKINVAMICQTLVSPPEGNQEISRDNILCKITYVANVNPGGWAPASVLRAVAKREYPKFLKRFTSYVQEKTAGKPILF
Experimental: FIG. 64. […]. Recombinant FLAG-GPBP, in similar quantities, expressed in yeast Pichia pastoris (Invitrogen) and purified with anti-FLAG resin (Sigma), as described above (Raya et al. J Biol Chem. 1999; […]. The reaction cocktails (25 μl) were incubated at 30° C. and stirred (350 rpm) for 15 minutes, then analyzed using PAGE standard procedures in the presence of SDS and β-mercaptoethanol, and electrotransferred to PVDF membrane (Immobilon P, Millipore). Membranes were then exposed to autoradiography (32P) and subsequently sent for incubation with anti-FLAG antibodies, peroxidase-labelled; ECL Prime (GE Healthcare) (WB anti-FLAG) was used for developing.
[…]. Then, electrophoresis in 10% polyacrylamide gel and electroblotting to PVDF membrane were applied. Autoradiography was applied to membranes by exposure to photographic films (Amersham Hyperfilm MP, GE Healthcare Lifesciences). After autoradiography, the membranes were blocked with 5% skimmed milk in TBST and incubated with anti-FLAG (Sigma) monoclonal antibodies and secondary antibodies against mouse IgG conjugated to peroxidase (Promega).

[1] = tested on: RAW264.7 macrophages and L1 adipocytes co-cultures; test: Cytometric analysis of RAW + L1 co-cultures; assay type: cell-based, Mice; settings: for EVENTS, F4/80^+CD86^− (first line) / %, F4/80^+CD86^− (second line) / EVENTS, F4/80^+CD86^− (second line) / %, F4/80^+CD86^− (first line) / %, F4/80^+: 10 mM, 24 hours; for %, F4/80^+CD86^− (second line): M1 macrophage percentage of total macrophages; for EVENTS, F4/80^+CD86^− (second line): M1 macrophages; for %, F4/80^+CD86^− (first line): of total macrophages; for %, F4/80^+: total macrophages; for reduction of the proportion of macrophages in M1: co-cultures
Description: One of the key pathogenic events in hyperglycemia of obese patients is the emergence of a pathogenic feedback between adipose tissue and macrophages of the immune system, in which adipocytes attract macrophages, polarizing them to pro-inflammatory phenotypes, and polarized macrophages secrete cytokines, promoting resistance to adipocyte insulin (Johnson A M, Olefsky J M. Cell. 2013; 152:673-84). To reproduce this pathogenic dialogue ex vivo and investigate the activity of SLNs compounds thereon, cytometric techniques allowing the discrimination between these cell lines and determination of phenotypic changes in macrophages in response to individual compounds (Table 18) were used.
RAW264.7 macrophages were added to adipocyte cultures, and the co-culture was maintained in DMEM supplemented with 10% FBS and antibiotics for 8 hours. […]. Next, cells were washed with PBS and collected by mechanical methods (without trypsin) to prevent protein loss from the cell surface. Cells were then blocked (FcBlock, BD Pharmingen) for 15 minutes at 4° C., and incubated for 20-30 minutes at 4° C. in darkness with anti-mouse F4/80 (eBioscience), conjugated with PerCP-Cy5.5, to mark macrophages, and anti-mouse CD86 (BioLegend), conjugated with PE-Cy7.7, to mark macrophages M1 specifically. Afterwards, cells were washed three times with PBS and centrifuged (500×g, 10 minutes, 4° C.), after which they were analyzed with a cytometer (FACSVerse, BD). In Table 6, the M1 macrophage percentage of the total macrophages analyzed (burgundy) for each treatment is highlighted in yellow.

blood glucose level = test: Effect of metformin compounds on the glucokinetic profile after oral glucose overload; assay type: in vivo, Rat; settings: rat, 750 mg/kg referred to metformin base, mean ± SD; for Blood glucose level, 0.25 h post-glucose overload / Blood glucose level, 1 h post-glucose overload / Blood glucose level, 4 h post-glucose overload / Blood glucose level, pre-glucose overload: *p<0.05 vs vehicle; for Blood glucose level, 3 h post-glucose overload: *p<0.05, **p<0.01 vs vehicle

| Compound | GPBP in vitro kinase activity (autophosphorylation) (GPBP) | EVENTS, F4/80^+CD86^− (first line) [1] | %, F4/80^+CD86^− (second line) [1] | EVENTS, F4/80^+CD86^− (second line) [1] | %, F4/80^+CD86^− (first line) [1] | %, F4/80^+ [1] | reduction of the proportion of macrophages in M1 [1] | Blood glucose level, 0.25 h post-glucose overload (blood glucose level) | Blood glucose level, 0.5 h post-glucose overload (blood glucose level) | Blood glucose level, 1 h post-glucose overload (blood glucose level) | Blood glucose level, 2 h post-glucose overload (blood glucose level) | Blood glucose level, 3 h post-glucose overload (blood glucose level) | Blood glucose level, 4 h post-glucose overload (blood glucose level) | Blood glucose level, 6 h post-glucose overload (blood glucose level) | Blood glucose level, pre-glucose overload (blood glucose level) | GPBP inhibition depending on reaction medium (GPBP; Na buffer: 25 mM Tris-HCl pH 7.4, 150 mM NaCl (FIG. 66)) | active ingredient concentration corresponding to 1 mM (GPBP; in vitro assays, pH 7.0, applicant's estimate) | GPBP in vitro kinase activity (autophosphorylation) (GPBP; listed as SLN10) |
| --- | --- | --- | --- | --- | --- | --- | --- | --- | --- | --- | --- | --- | --- | --- | --- | --- | --- | --- |
| CN(C)C(=N)N=C(N)N [Metformin hydrochloride, metformin hydrochloride, reference compound] | moderate activator | 551 | 65.76% | 1,058 | 34.24% | 100.00% | lowest activity | 93.75 ± 15.78 mg/dL | 89.50 ± 9.98 mg/dL | 88.25 ± 10.63 mg/dL | 74.00 ± 10.58 mg/dL | 85.75 ± 7.37 mg/dL | 83.75 ± 7.23 mg/dL | 89.00 ± 11.80 mg/dL | 77.00 ± 8.08 mg/dL |  |  |  |
| metformin lysinate |  | 566 | 62.96% | 962 | 37.04% | 100.00% | strongest effect | 108.33 ± 14.57 mg/dL | 101.00 ± 15.13 mg/dL | 106.00 ± 15.72 mg/dL | 94.00 ± 19.47 mg/dL | 84.67 ± 7.09 mg/dL | 89.00 ± 5.29 mg/dL | 98.33 ± 9.07 mg/dL | 93.33 ± 22.48 mg/dL | inhibits GPBP in Na buffer | 8.6 µM | inhibits GPBP in vitro kinase activity; also recorded: kinase activity inhibitors |
